Here are results for 10 molecules from patent US20020099070A1, “Dihydronaphthyridine potassium channel openers” (priority 2000, published 2002).

Assay [1] deals with primary cultured guinea-pig urinary bladder (GPB) cells. Briefly: Membrane hyperpolarization (MHP) assay, DiBAC(4)3 / FLIPR. It is filed as cell-based. The conditions noted are these: for Emax / Maximal Response (% P1075): maximal steady-state hyperpolarization, normalized to 10 μM P1075 = 100%; for Emax: read-out: Maximal Response (% P1075); for EC50: membrane hyperpolarization in GPB cells. The method, then:
Compounds were evaluated for potassium channel opening activity using primary cultured guinea-pig urinary bladder (GPB) cells.
For the preparation of urinary bladder smooth muscle cells, urinary bladders were removed from male guinea-pigs (Hartley, Charles River, Wilmington, Mass.) weighing 300-400 g and placed in ice-cold Ca^2+-free Krebs solution (Composition, mM: KCl, 2.7; KH2PO4, 1.5; NaCl, 75; Na2HPO4, 9.6; Na2HPO4.7H2O, 8; MgSO4, 2; glucose, 5; HEPES, 10; pH 7.4). Cells were isolated by enzymatic dissociation as previously described with minor modifications in Klockner, U. and Isenberg, G., Pflugers Arch. 1985, 405, 329-339, hereby incorporated by reference. The bladder was cut into small sections and incubated in 5 mL of the Kreb's solution containing 1 mg/mL collagenase (Sigma, St. Louis, Mo.) and 0.2 mg/mL pronase (Calbiochem, La Jolla, Calif.) with continuous stirring in a cell incubator for 30 minutes. The mixture was then centrifuged at 1300×g for 5 minutes, and the pellet resuspended in Dulbecco's PBS (GIBCO, Gaithersburg, Md.) and recentrifuged to remove residual enzyme. The cell pellet was resuspended in 5 mL growth media (composition: Dulbecco's modified Eagle's medium supplemented with 10% fetal bovine serum, 100 units/mL penicillin, 100 units/mL streptomycin and […] amphotericin B) and further dissociated by pipetting the suspension through a flame-polished Pasteur pipette and passing it through a polypropylene mesh membrane (Spectrum, Houston, Tex.). The cell density was adjusted to 100,000 cells/mL by resuspension in growth media. Cells were plated in clear-bottomed black 96-well plates (Packard) for membrane potential studies at a density of 20,000 cells/well and maintained in a cell incubator with 90% air: 10% CO2 until confluent. Cells were confirmed to be of smooth muscle type by cytoskeletal staining using a monoclonal mouse anti human-α-smooth muscle actin (Biomeda, Foster City, Calif.).
Functional activity at potassium channels was measured by evaluating changes in membrane potential using the bis-oxonol dye DiBAC(4)3 (Molecular Probes) in a 96-well cell-based kinetic assay system, Fluorescent Imaging Plate Reader (FLIPR) (K. S. Schroeder et al., J. Biomed. Screen., v. 1 pp. 75-81 (1996)), hereby incorporated by reference. DiBAC(4)3 is an anionic potentiometric probe which partitions between cells and extracellular solution in a membrane potential-dependent manner. With increasing membrane potential (for example, K^+ depolarization), the probe fuither partitions into the cell; this is measured as an increase in fluorescence due to dye interaction with intracellular lipids and proteins. Conversely, decreasing membrane potential (hyperpolarization by potassium channel openers) evokes a decrease in fluorescence.
Confluent guinea-pig urinary bladder cells cultured in black clear-bottomed 96-well plates were rinsed twice with […] assay buffer (composition, mM: HEPES, 20; NaCl, 120; KCl, 2; CaCl2, 2; MgCl2, 1; glucose, 5; pH 7.4 at 25° C.) containing 5 μM DiBAC(4)3 and incubated with […] of the buffer in a cell incubator for 30 minutes at 37° C. to ensure dye distribution across the membrane. After recording the baseline fluorescence for 5 minutes, the reference or test compounds, prepared at 10 times the concentration in the assay buffer, were added directly to the wells. Changes in fluorescence were monitored for an additional 25 minutes. Hyperpolarization responses were corrected for any background noise and were normalized to the response observed with 10 μM of the reference compound P1075, N″-cyano-N-(tert-pentyl)-N′-(3-pyridinyl)guanidine, which was assigned as 100%. P1075 is a potent opener of smooth muscle KATP channels (Quast et al., Mol. Pharmacol., v. 43 pp. 474-481 (1993)) and was prepared using the procedures described in (Manley, J. Med. Chem. (1992) 35, 2327-2340), hereby incorporated by reference. […]

In assay [2] the test system is Landrace pig bladder strips. Briefly: Functional potassium channel opening activity in isolated bladder strips (field-stimulated twitch). The conditions noted are these: for Index: ED50 for P1075 divided by ED50 for test agonist, averaged over tissues; for EC50: Sus scrofa, read-out: pD2 (converted); for EC50 / pD2: negative logarithm of ED50; for Efficacy (% P1075): maximal efficacy relative to P1075, field stimulation 0.05 Hz, 0.5 ms, 20 volts. The method, then: Compounds were evaluated for functional potassium channel opening activity using tissue strips obtained from Landrace pig bladders.
Landrace pig bladders were obtained from female Landrace pigs of 9-30 kg. Landrace pigs were euthanized with an intraperitoneal injection of pentobarbital solution, Somlethal® , J. A. Webster Inc., Sterling, Mass. The entire bladder was removed and immediately placed into Krebs Ringer bicarbonate solution (composition, mM: NaCl, 120; NaHCO3, 20; dextrose, 11; KCl, 4.7; CaCl2, 2.5; MgSO4, 1.5; KH2PO4, 1.2; K2EDTA, 0.01, equilibrated with 5% CO2/95% O2 pH 7.4 at 37° C.). Propranolol (0.004 mM) was included in all of the assays to block β-adrenoceptors. The trigonal and dome portions were discarded. Strips 3-5 millimeters (mm) wide and 20 mm long were prepared from the remaining tissue cut in a circular fashion. The mucosal layer was removed. One end was fixed to a stationary glass rod and the other to a Grass FT03 transducer at a basal preload of 1.0 g. Two parallel platinum electrodes were included in the stationary glass rod to provide field stimulation of 0.05 Hz, 0.5 milli-seconds at 20 volts. This low frequency stimulation produced a stable twitch response of 100-500 centigrams. Tissues were allowed to equilibrate for at least 60 minutes and primed with 80 mM KCl. A control concentration response curve (cumulative) was generated for each tissue using the potassium channel opener P1075 as the control agonist. […] After a 60 minute rinsing period, a concentration response curve (cumulative) was generated for the test agonist in the same fashion as that used for the control agonist P1075. The maximal efficacy of each compounds (expressed as % relative to P1075) is reported. The amount of agent necessary to cause 50% of the agent's maximal response (ED50) was calculated using “ALLFIT” (DeLean et al., Am. J. Physiol., 235, E97 (1980)), and agonist potencies were expressed as pD2 (the negative logarithm). Agonist potencies were also expressed as an index relative to P1075. The index was calculated by dividing the ED50 for P1075 by the ED50 for the test agonist in a give tissue. Each tissue was used for only one test agonist, and the indices obtained from each tissue were averaged to provide an average index of potency.

As to `CC1=C(C#N)C(c2ccc(F)c(Br)c2)C2=C(CCNC2=O)N1` (centres unmarked) [Example 2, 4-(3-bromo-4-fluorophenyl)-3-cyano-2-methyl-4,6,7,8-tetrahydro[1,6]naphthyridin-5(1H)-one], in assay [1] (Cavia porcellus), the Emax came to 122% and the EC50 stood at 0.1 µM. Also, in assay [2], the Index is reported as 0.2653, the EC50 is 0.692 µM and the “Efficacy (% P1075)” value was 60 % P1075.
Turning to `CC1=C(C#N)C(c2ccc(F)c(Br)c2)c2c(cc[nH]c2=O)N1` (centres unmarked) [Example 5, 4-(3-bromo-4-fluorophenyl)-3-cyano-2-methyl-4,6-dihydro[1,6]naphthyridin-5(1H)-one], in assay [1] (Cavia porcellus), the Emax stood at 114%. In addition, in assay [1], the EC50 was 0.017 µM. In addition, in assay [2], the Index is 1.2740, the “Efficacy (% P1075)” value was 98 % P1075 and the pD2 was found to be 6.85.
As to `CC1=C(C#N)C(c2ccc(F)c(Br)c2)c2c(cc[nH]c2=O)N1` (centres unmarked) [Example 6, 4-(3-bromo-4-fluorophenyl)-3-cyano-2-methyl-4,6-dihydro[1,6]naphthyridin-5(1H)-one], in assay [1], the “Maximal Response (% P1075)” value is recorded as 102 % P1075 and the EC50 was 1.5 µM. For the same molecule, in assay [2], the Index stood at 0.0318, the “Efficacy (% P1075)” value is 67 % P1075 and the pD2 is listed as 4.89.
On to `CC1=C(C#N)C(c2ccc(F)c(Br)c2)c2c(ccn(C)c2=O)N1` (centres unmarked) [Example 7, 4-(3-bromo-4-fluorophenyl)-3-cyano-2,6-dimethyl-4,6-dihydro[1,6]naphthyridin-5(1H)-one], for which, in assay [2], the Index was 2.826, the EC50 was 0.0102 µM and the “Efficacy (% P1075)” value came out at 100 % P1075.
The like results for `CC1=C(C#N)C(c2ccc(F)c(C(F)(F)F)c2)C2=C(CCOC2=O)N1` (centres unmarked) [Example 26, 4-[4-fluoro-3-(trifluoromethyl)phenyl]-3-cyano-2-methyl-1,4,7,8-tetrahydro-5H-pyrano[4,3-b]pyridin-5-one] were, in that order, 0.6715, 0.275 µM and 98 % P1075.
`CC1=C(C#N)C(c2ccc(F)c(Br)c2)c2c(ccnc2Cl)N1` (centres unmarked) [Example 33, 4-(3-bromo-4-fluorophenyl)-5-chloro-3-cyano-2-methyl-1,4-dihydro[1,6]naphthyridine]: in assay [1], the “Maximal Response (% P1075)” value turned out to be 65 % P1075 and the EC50 turned out to be 0.028 µM. In addition, in assay [2], the Index is 0.0353, the “Efficacy (% P1075)” value amounted to 61 % P1075 and the pD2 was found to be 5.31.
The matching figures for `CC1=C(C#N)C(c2ccc(F)c(Br)c2)c2c(ccnc2Cl)N1` (centres unmarked) [Example 34, 4-(3-bromo-4-fluorophenyl)-5-chloro-3-cyano-2-methyl-1,4-dihydro[1,6]naphthyridine]: 90 % P1075, 0.006 µM, 0.2089, 85 % P1075 and 6.14.
Turning to `CC1=C(C#N)C(c2ccc(F)c(Br)c2)c2c(cc[nH]c2=S)N1` (centres unmarked) [Example 35, 4-(3-bromo-4-fluorophenyl)-3-cyano-2-methyl-4,6-dihydro[1,6]naphthyridine-5(1H)-thione], in assay [2], the Index is 0.3068, the EC50 was 0.794 µM and the “Efficacy (% P1075)” value was determined as 77 % P1075.
The matching figures for `COc1nccc2c1C(c1ccc(F)c(Br)c1)C(C#N)=C(C)N2` (centres unmarked) [Example 38, 4-(3-bromo-4-fluorophenyl)-3-cyano-2-methyl-5-methoxy-1,4-dihydro[1,6]naphthyridine]: 0.2488, 1 µM and 78 % P1075.
On to `CCC(C)(C)NC(=NC#N)Nc1cccnc1` [Example P1075, N″-cyano-N-(tert-pentyl)-N′-(3-pyridinyl)guanidine, reference compound], for which the “effect on stimulated twitch / contractions of the bladder” value in assay [2] (P1075: concentration range 10^−9 to 10^−5 M, cumulative) is “completely eliminated the stimulated twitch”.
